Data published in patent publication US8501946B2 (Glaxo Group Limited, priority 2009, dated 2013).

Each compound was assayed against T1, human recombinant P2X7 receptors (Homo sapiens, UniProt Q99572) (assay: Ethidium Accumulation Assay 2 (HEK293 cells, ATP-induced ethidium uptake)). Settings: HEK293 cells expressing human P2X7; read-out: Assay 2 (antagonist pIC50 for blocking ATP responses), numeric value (converted).
T1 construct: expressed in transfected cells
T1 sequence (Q99572 1-595): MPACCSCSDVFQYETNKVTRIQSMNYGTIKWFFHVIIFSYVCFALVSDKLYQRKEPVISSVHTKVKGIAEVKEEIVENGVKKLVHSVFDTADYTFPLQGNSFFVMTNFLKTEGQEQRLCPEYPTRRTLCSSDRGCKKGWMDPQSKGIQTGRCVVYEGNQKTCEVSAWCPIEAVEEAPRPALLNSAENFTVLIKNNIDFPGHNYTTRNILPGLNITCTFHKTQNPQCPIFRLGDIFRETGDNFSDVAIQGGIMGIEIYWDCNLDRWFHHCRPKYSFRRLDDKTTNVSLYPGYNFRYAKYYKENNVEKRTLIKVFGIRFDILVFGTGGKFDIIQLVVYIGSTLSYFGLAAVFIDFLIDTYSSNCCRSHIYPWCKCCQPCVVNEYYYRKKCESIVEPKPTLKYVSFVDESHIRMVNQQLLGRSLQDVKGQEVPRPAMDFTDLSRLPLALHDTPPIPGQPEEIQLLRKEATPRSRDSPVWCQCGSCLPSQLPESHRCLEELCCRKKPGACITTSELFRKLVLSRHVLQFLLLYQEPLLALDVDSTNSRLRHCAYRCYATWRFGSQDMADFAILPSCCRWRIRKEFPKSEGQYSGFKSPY
Type: cell-based
Method: Eithidium Accumulation Assay 2
Human Embryonic Kidney (HEK) 293 cells, stably expressing human recombinant P2X7 receptors, were grown in poly-D-lysine pretreated 96 well plates for 24 hours at 37° C.
The cells were washed with assay buffer (100 μL), before addition of 25 μL of assay buffer and then 25 ul of assay buffer containing the putative P2X7 receptor antagonist compound. The cells were then incubated at room temperature (19-21° C.) for 30 min before addition of ATP solution (50 μM). […] Antagonist pIC50 values for blocking ATP responses were determined using iterative curve fitting techniques.

Row | IC50 | Compound
1 | 631 nM | Cc1nnsc1-c1nnc2n1CCN(C(=O)c1ccc(Cl)c(F)c1Cl)C2 [Example 179, 7-[(2,4-Dichloro-3-fluorophenyl)carbonyl]-3-(4-methyl-1,2,3-thiadiazol-5-yl)-5,6,7,8-tetrahydro[1,2,4]triazolo[4,3-a]pyrazine]

Same assay, conditions: HEK293 cells expressing human P2X7; sometimes mean of more than one measurement; read-out: Assay 2 (antagonist pIC50 for blocking ATP responses) (converted)

Row | Compound | IC50
2 | O=C(c1ccc(Cl)cc1Cl)N1CCn2c(nnc2-c2ccon2)C1 [Example 161, 7-[(2,4-dichlorophenyl)carbonyl]-3-(3-isoxazolyl)-5,6,7,8-tetrahydro[1,2,4]triazolo[4,3-a]pyrazine] | < 501 nM
3 | O=C(c1ccc(Cl)c(F)c1Cl)N1CCn2c(nnc2-c2cccnc2O)C1 [Example 171, 3-{7-[(2,4-dichloro-3-fluorophenyl)carbonyl]-5,6,7,8-tetrahydro[1,2,4]triazolo[4,3-a]pyrazin-3-yl}-2-pyridinol] | < 100 nM
4 | O=C(c1cccc(C(F)(F)F)c1Cl)N1CCn2c(nnc2-c2cccnc2O)C1 [Example 163, 3-(7-{[2-chloro-3-(trifluoromethyl)phenyl]carbonyl}-5,6,7,8-tetrahydro[1,2,4]triazolo[4,3-a]pyrazin-3-yl)-2-pyridinol] | < 100 nM
5 | Cc1c(C(=O)N2CCn3c(nnc3-c3ccc(F)cn3)C2)ccc(F)c1F [Example 155, 7-[(3,4-difluoro-2-methylphenyl)carbonyl]-3-(5-fluoro-2-pyridinyl)-5,6,7,8-tetrahydro[1,2,4]triazolo[4,3-a]pyrazine] | < 100 nM
6 | Cc1c(C(=O)N2CCn3c(nnc3-c3ccc(F)cn3)C2)ccc(F)c1Cl [Example 156, 7-[(3-chloro-4-fluoro-2-methylphenyl)carbonyl]-3-(5-fluoro-2-pyridinyl)-5,6,7,8-tetrahydro[1,2,4]triazolo[4,3-a]pyrazine] | < 10 nM
7 | O=C(c1ccc(Cl)c(F)c1Cl)N1CCn2c(nnc2-c2cscn2)C1 [Example 149, 7-[(2,4-dichloro-3-fluorophenyl)carbonyl]-3-(1,3-thiazol-4-yl)-5,6,7,8-tetrahydro[1,2,4]triazolo[4,3-a]pyrazine] | < 10 nM
8 | O=C(c1ccc(F)c(Cl)c1Cl)N1CCn2c(nnc2-c2ncns2)C1 [Example 169, 7-[(2,3-dichloro-4-fluorophenyl)carbonyl]-3-(1,2,4-thiadiazol-5-yl)-5,6,7,8-tetrahydro[1,2,4]triazolo[4,3-a]pyrazine] | < 10 nM
9 | O=C(c1ccc(F)cc1Cl)N1CCn2c(nnc2-c2cnc(F)cn2)C1 [Example 165, 7-[(2-chloro-4-fluorophenyl)carbonyl]-3-(5-fluoro-2-pyrazinyl)-5,6,7,8-tetrahydro[1,2,4]triazolo[4,3-a]pyrazine] | < 100 nM
10 | O=C(c1ccc(F)c(Cl)c1Cl)N1CCn2c(nnc2-c2cccnn2)C1 [Example 168, 7-[(2,3-Dichloro-4-fluorophenyl)carbonyl]-3-(3-pyridazinyl)-5,6,7,8-tetrahydro[1,2,4]triazolo[4,3-a]pyrazine] | < 100 nM
11 | O=C(c1ccc(Cl)c(F)c1Cl)N1CCn2c(nnc2-c2ncccc2F)C1 [Example 170, 7-[(2,4-dichloro-3-fluorophenyl)carbonyl]-3-(3-fluoro-2-pyridinyl)-5,6,7,8-tetrahydro[1,2,4]triazolo[4,3-a]pyrazine] | < 10 nM
12 | O=C(c1ccc(Cl)cc1Cl)N1CCn2c(nnc2-c2ccno2)C1 [Example 157, 7-[(2,4-dichlorophenyl)carbonyl]-3-(5-isoxazolyl)-5,6,7,8-tetrahydro[1,2,4]triazolo[4,3-a]pyrazine] | < 501 nM
13 | Cc1ccc(C(=O)N2CCn3c(nnc3-c3cnccn3)C2)c(Cl)c1Cl [Example 152, 7-[(2,3-dichloro-4-methylphenyl)carbonyl]-3-(2-pyrazinyl)-5,6,7,8-tetrahydro[1,2,4]triazolo[4,3-a]pyrazine] | < 10 nM
14 | O=C(c1ccc(F)cc1Br)N1CCn2c(nnc2-c2cnccn2)C1 [Example 147, 7-[(2-bromo-4-fluorophenyl)carbonyl]-3-(2-pyrazinyl)-5,6,7,8-tetrahydro[1,2,4]triazolo[4,3-a]pyrazine] | < 10 nM
15 | COc1ccnc(-c2nnc3n2CCN(C(=O)c2ccc(Cl)c(F)c2Cl)C3)c1 [Example 174, 7-[(2,4-dichloro-3-fluorophenyl)carbonyl]-3-[4-(methyloxy)-2-pyridinyl]-5,6,7,8-tetrahydro[1,2,4]triazolo[4,3-a]pyrazine] | < 10 nM
16 | Cc1c(Cl)ccc(C(=O)N2CCn3c(nnc3-c3cnccn3)C2)c1Cl [Example 154, 7-[(2,4-dichloro-3-methylphenyl)carbonyl]-3-(2-pyrazinyl)-5,6,7,8-tetrahydro[1,2,4]triazolo[4,3-a]pyrazine] | < 10 nM
17 | O=C(c1cccc(C(F)(F)F)c1Cl)N1CCn2c(nnc2-c2ncns2)C1 [Example 164, 7-{[2-chloro-3-(trifluoromethyl)phenyl]carbonyl}-3-(1,2,4-thiadiazol-5-yl)-5,6,7,8-tetrahydro[1,2,4]triazolo[4,3-a]pyrazine] | < 10 nM
18 | Cc1c(F)ccc(C(=O)N2CCn3c(nnc3-c3cnccn3)C2)c1Cl [Example 153, 7-[(2-chloro-4-fluoro-3-methylphenyl)carbonyl]-3-(2-pyrazinyl)-5,6,7,8-tetrahydro[1,2,4]triazolo[4,3-a]pyrazine] | < 10 nM

Now from value to compound:

Row | IC50 | Compound
19 | < 100 nM | Cc1csc(-c2nnc3n2CCN(C(=O)c2ccc(Cl)c(F)c2Cl)C3)n1 [Example 191, 7-[(2,4-Dichloro-3-fluorophenyl)carbonyl]-3-(4-methyl-1,3-thiazol-2-yl)-5,6,7,8-tetrahydro[1,2,4]triazolo[4,3-a]pyrazine]
20 | < 100 nM | Cc1c(Cl)cccc1C(=O)N1CCn2c(nnc2-c2nccs2)C1 [Example 200, 7-[(3-Chloro-2-methylphenyl)carbonyl]-3-(1,3-thiazol-2-yl)-5,6,7,8-tetrahydro[1,2,4]triazolo[4,3-a]pyrazine]
21 | < 10 nM | N#Cc1c(Cl)cccc1C(=O)N1CCn2c(nnc2-c2ccccn2)C1 [Example 204, 2-Chloro-6-{[3-(2-pyridinyl)-5,6-dihydro[1,2,4]triazolo[4,3-a]pyrazin-7(8H)-yl]carbonyl}benzonitrile]
22 | < 100 nM | COc1cccc(-c2nnc3n2CCN(C(=O)c2ccc(Cl)c(F)c2Cl)C3)n1 [Example 176, 7-[(2,4-dichloro-3-fluorophenyl)carbonyl]-3-[6-(methyloxy)-2-pyridinyl]-5,6,7,8-tetrahydro[1,2,4]triazolo[4,3-a]pyrazine]
23 | < 100 nM | O=C(c1ccc(Cl)c(F)c1Cl)N1CCn2c(nnc2-n2cccn2)C1 [Example 184, 7-[(2,4-Dichloro-3-fluorophenyl)carbonyl]-3-(1H-pyrazol-1-yl)-5,6,7,8-tetrahydro[1,2,4]triazolo[4,3-a]pyrazine]
24 | < 10 nM | Cc1c(Cl)cccc1C(=O)N1CCn2c(nnc2-c2ncns2)C1 [Example 195, 7-[(3-Chloro-2-methylphenyl)carbonyl]-3-(1,2,4-thiadiazol-5-yl)-5,6,7,8-tetrahydro[1,2,4]triazolo[4,3-a]pyrazine]
25 | < 10 nM | Cc1c(C(=O)N2CCn3c(nnc3-c3ncns3)C2)ccc(F)c1Cl [Example 193, 7-[(3-Chloro-4-fluoro-2-methylphenyl)carbonyl]-3-(1,2,4-thiadiazol-5-yl)-5,6,7,8-tetrahydro[1,2,4]triazolo[4,3-a]pyrazine]
26 | < 100 nM | O=C(c1ccc(Cl)c(F)c1Cl)N1CCn2c(nnc2-c2csnn2)C1 [Example 189, 7-[(2,4-Dichloro-3-fluorophenyl)carbonyl]-3-(1,2,3-thiadiazol-4-yl)-5,6,7,8-tetrahydro[1,2,4]triazolo[4,3-a]pyrazine]
27 | < 10 nM | O=C(c1ccc(Cl)c(F)c1Cl)N1CCn2c(nnc2-c2nccs2)C1 [Example 187, 7-[(2,4-Dichloro-3-fluorophenyl)carbonyl]-3-(1,3-thiazol-2-yl)-5,6,7,8-tetrahydro[1,2,4]triazolo[4,3-a]pyrazine]
28 | < 100 nM | O=C(c1ccc(Cl)c(F)c1Cl)N1CCn2c(nnc2-c2cncs2)C1 [Example 185, 7-[(2,4-Dichloro-3-fluorophenyl)carbonyl]-3-(1,3-thiazol-5-yl)-5,6,7,8-tetrahydro[1,2,4]triazolo[4,3-a]pyrazine]
29 | < 100 nM | O=C(c1ccc(Cl)c(F)c1Cl)N1CCn2c(nnc2-c2ncccc2O)C1 [Example 175, 2-{7-[(2,4-dichloro-3-fluorophenyl)carbonyl]-5,6,7,8-tetrahydro[1,2,4]triazolo[4,3-a]pyrazin-3-yl}-3-pyridinol]
30 | < 10 nM | Cc1c(C(=O)N2CCn3c(nnc3-c3nccs3)C2)ccc(F)c1Cl [Example 201, 7-[(3-Chloro-4-fluoro-2-methylphenyl)carbonyl]-3-(1,3-thiazol-2-yl)-5,6,7,8-tetrahydro[1,2,4]triazolo[4,3-a]pyrazine]
